Drawing on US8999986B2, “Pyrrolo [2,3—D] pyrazin—7—ylpyrimidine compounds” (Merck Patent GmbH, priority 2009, dated 2015), this text covers IC50 for 18 compounds.

One assay has as its target T1, PDK1 (Homo sapiens, UniProt O15530).
T1 construct: His6 (N)
T1 sequence (O15530 51-556 limits assumed): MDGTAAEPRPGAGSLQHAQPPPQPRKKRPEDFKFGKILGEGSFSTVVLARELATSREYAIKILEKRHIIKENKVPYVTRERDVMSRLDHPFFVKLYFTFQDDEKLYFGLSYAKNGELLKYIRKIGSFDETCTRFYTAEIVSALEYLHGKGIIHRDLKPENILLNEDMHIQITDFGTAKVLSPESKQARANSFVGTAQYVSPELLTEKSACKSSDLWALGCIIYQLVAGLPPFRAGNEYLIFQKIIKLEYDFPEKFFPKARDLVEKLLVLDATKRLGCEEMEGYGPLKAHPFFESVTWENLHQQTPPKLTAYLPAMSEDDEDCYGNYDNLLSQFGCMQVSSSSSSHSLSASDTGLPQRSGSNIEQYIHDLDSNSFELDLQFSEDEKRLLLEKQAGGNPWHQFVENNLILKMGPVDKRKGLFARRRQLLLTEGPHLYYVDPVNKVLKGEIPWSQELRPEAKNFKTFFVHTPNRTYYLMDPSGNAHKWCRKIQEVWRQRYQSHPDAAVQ
Briefly: Test for the inhibition of PDK1 (flashplate, 33P-ATP). The format is biochemical. The settings on record: His6-PDK1(1-50) 3.4 nM, 4 μM ATP, 30° C., 60 min. As to the method:
The experimental batches are carried out in a flashplate system with 384 wells/microtitration plate.
In each case, the PDK1 sample His6-PDK1(1-50)(3.4 nM), the PDK1 substrate biotin-bA-bA-[…] (400 nM), 4 μM ATP (with 0.2 μCi of ^33P-ATP/well) and the test substance in 50 μl of conventional experimental solution per well are incubated at 30° C. for 60 min. The test substances are employed in corresponding concentrations (if desired in a dilution series). The control is carried out without test substance. The reaction is stopped using standard methods and washed. The activity of the kinase is measured via the incorporated radioactivity in top count. In order to determine the non-specific kinase reaction (blank value), the experimental batches are carried out in the presence of 100 nM staurosporin.
The radioactivity (decompositions per minute) of the blank value (no use of test substance in the presence of staurosporin) is subtracted from all other radioactivity values. The controls (kinase activity without test substance) are set equal to 100 percent and all other radioactivity values (after subtracting the blank value) are expressed set in relation thereto (for example in % of the control).
[formula] IC50 values (50% inhibition) are determined with the aid of statistics pro-grammes, such as, for example, RS1.

Assay [1] relates to phospho-T308-PKB in PC3 cells. Briefly: Cellular testing of PDK1 kinase inhibitors in PC3 cells (Luminex, phospho-T308-PKB). Type of assay: cell-based. The following applies: Homo sapiens. As to the method:
Method for the Cellular Testing of PDK1 Kinase Inhibitors in PC3 Cells.
The cellular assay for the determination of the PDK1 kinase activity is carried out as a Luminex assay in the 96-well format. PC3 cells are sown at 20,000 cells per well in 100 μl of medium (45% of […]/45% of Ham's F12/10% of FCS) and incubated on the following day for 30 min with a serial dilution of the test substance (7 concentrations) under serum-free conditions. The cells are subsequently lysed using 90 μl of lysis buffer (20 mM tris/HCl pH 8.0, 150 mM NaCl, 1% of NP40, 10% of glycerol, 1% of phosphatase inhibitor I, 1% of phosphatase inhibitor II, 0.1% of protease inhibitor cocktail 111, 0.01% of benzonase) per well, and the lysates are separated off from insoluble cell constituents by means of centrifugation through a 96-well filter plate (0.65 μm). The lysates are incubated overnight at 4° C. with shaking with Luminex beads to which an anti-total PKB antibody is coupled. The detection is carried out on the following day by addition of a phospho-T308-PKB antibody and a species-specific […] secondary antibody. The detection of phospho-T308-PKB is carried out by measurement in a Luminex100 instrument by determination of 100 events per cavity in a measurement time of 60 sec. As pharmacological blank, the signals obtained from cells which have been treated with 10 μM staurosporin are subtracted from all other batches. The control value used for maximum phosphorylation of PKB on T308 are the signals from cells which have only been treated with the solvent (0.3% of DMSO). The values of the batches treated with test substance are calculated therefrom as percentage of control, and IC50 values are determined by means of RS1.

Where [2] appears, read: PC-3, cellular assay, cell line not named, read-out: IC50 [cell].

Molecules are shown by their SMILES. Read-outs that look alike come from different tables or passages of the source.

On to `Cn1cc(-c2cnc3[nH]cc(-c4cc([C@@](C)(O)c5ccccc5F)nc(N)n4)c3n2)cn1` (single isomer, unassigned) [A8], for which the IC50 against PDK1 amounted to 43 nM; in assay [1] (setting [2]), 570 nM.
For the compound `Cn1cc(-c2cnc3[nH]cc(-c4cc(C(C)(O)c5ccccc5)nc(N)n4)c3n2)cn1` (stereo not drawn) [A4, 1-{2-Amino-6-[2-(1-methyl-1H-pyrazol-4-yl)-5H-pyrrolo[2,3-b]pyrazin-7-yl]-pyrimidin-4-yl}-1-phenylethanol], the IC50 on PDK1 is 55 nM; in assay [1] (setting [2]), 570 nM.
With `Cn1cc(-c2cnc3[nH]cc(-c4cc(C(C)(O)c5cccc(F)c5)nc(N)n4)c3n2)cn1` (stereo not drawn) [A3, 1-{2-amino-6-[2-(1-methyl-1H-pyrazol-4-yl)-5H-pyrrolo[2,3-b]pyrazin-7-yl]-pyrimidin-4-yl}-1-(3-fluorophenyl)ethanol], the IC50 against PDK1 was 71 nM; in assay [1] (setting [2]) it was 530 nM.
In the case of `CC[C@](O)(c1cccc(F)c1)c1cc(-c2c[nH]c3ncc(-c4cnn(C)c4)nc23)nc(N)n1` (single isomer, unassigned) [A29], the IC50 against PDK1 was found to be 90 nM; in assay [1] (setting [2]), 2.2 nM.
For `CC[C@@](O)(c1cc(-c2c[nH]c3ncc(-c4cnn(C)c4)nc23)nc(N)n1)c1ccccc1F` (single isomer, unassigned) [A31], the values for the IC50 (against PDK1; in assay [1] (setting [2])) were 24 nM and 4.8 nM, respectively.
As for `CCC(O)(c1cc(-c2c[nH]c3ncc(-c4cnn(C)c4)nc23)nc(N)n1)c1ccccc1F` (stereo not drawn) [A24, 1-{2-Amino-6-[2-(1-methyl-1H-pyrazol-4-yl)-5H-pyrrolo[2,3-b]pyrazin-7-yl]-pyrimidin-4-yl}-1-(2-fluorophenyl)propan-1-ol], the concentration for half-maximal inhibition (IC50) against PDK1 was found to be 54 nM; in assay [1] (setting [2]) it was 92 nM.
On the same counts, the results for `CCC(O)(c1ccncc1)c1cc(-c2c[nH]c3ncc(-c4cnn(C)c4)nc23)nc(N)n1` (stereo not drawn) [A28, 1-{2-Amino-6-[2-(1-methyl-1H-pyrazol-4-yl)-5H-pyrrolo[2,3-b]pyrazin-7-yl]-pyrimidin-4-yl}-1-pyridin-4-ylpropan-1-ol] are 17 nM and 160 nM.
In the case of `COCOC(C)(c1cccc(F)c1)c1cc(-c2c[nH]c3ncc(-c4cnn(C)c4)nc23)nc(N)n1` (stereo not drawn) [A2, 4-[1-(3-fluorophenyl)-1-methoxymethoxyethyl]-6-[2-(1-methyl-1H-pyrazol-4-yl)-5H-pyrrolo[2,3-b]pyrazin-7-yl]pyrimidin-2-ylamine], the IC50 is 120 nM against PDK1 and 810 nM in assay [1] (PC-3, 0.5 h, PC3 cells, 30 min with test substance, serum-free, read-out: IC50 [P-PKB T308]).
Regarding `Cn1cc(-c2cnc3[nH]cc(-c4cc(C(C)(O)c5ccccc5F)nc(N)n4)c3n2)cn1` (stereo not drawn) [A6, 1-{2-Amino-6-[2-(1-methyl-1H-pyrazol-4-yl)-5H-pyrrolo[2,3-b]pyrazin-7-yl]-pyrimidin-4-yl}-1-(2-fluorophenyl)ethanol], the values for the concentration for half-maximal inhibition (IC50) (on PDK1; in assay [1] (setting [2])) were 31 nM and 190 nM, respectively.
Consider `CCC(O)(c1cccc(F)c1)c1cc(-c2c[nH]c3ncc(-c4cnn(C)c4)nc23)nc(N)n1` (stereo not drawn) [A25, 1-{2-Amino-6-[2-(1-methyl-1H-pyrazol-4-yl)-5H-pyrrolo[2,3-b]pyrazin-7-yl]-pyrimidin-4-yl}-1-(3-fluorophenyl)propan-1-ol], for which the values for the concentration for half-maximal inhibition (IC50) (on PDK1; in assay [1] (setting [2])) were 36 nM and 110 nM, respectively.
On to `COCOC(C)(c1ccccc1)c1cc(-c2c[nH]c3ncc(-c4cnn(C)c4)nc23)nc(N)n1` (stereo not drawn) [A5, 4-(1-Methoxymethoxy-1-phenylethyl)-6-[2-(1-methyl-1H-pyrazol-4-yl)-5H-pyrrolo[2,3-b]pyrazin-7-yl]pyrimidin-2-ylamine], for which the figures for the IC50 (at PDK1; in assay [1] (setting [2])) were 90 nM and 420 nM, respectively.
Turning to `CCC(OCOC)(c1cc(-c2c[nH]c3ncc(-c4cnn(C)c4)nc23)nc(N)n1)c1ccncc1F` (stereo not drawn) [A27, 4-[1-(3-Fluoropyridin-4-yl)-1-methoxymethoxypropyl]-6-[2-(1-methyl-1H-pyrazol-4-yl)-5H-pyrrolo[2,3-b]pyrazin-7-yl]pyrimidin-2-ylamine], the figures for the concentration for half-maximal inhibition (IC50) (at PDK1; in assay [1] (setting [2])) were 90 nM and 600 nM, respectively.
In the case of `CC[C@@](O)(c1cccc(F)c1)c1cc(-c2c[nH]c3ncc(-c4cnn(C)c4)nc23)nc(N)n1` (single isomer, unassigned) [A30], the IC50 on PDK1 worked out at 18 nM; in assay [1] (setting [2]), 21 nM.
On the same counts, the results for `CC[C@](O)(c1cc(-c2c[nH]c3ncc(-c4cnn(C)c4)nc23)nc(N)n1)c1ccccc1F` (single isomer, unassigned) [A32] are 95 nM and 2.9 nM.
As for `CCC(O)(c1cc(-c2c[nH]c3ncc(-c4cnn(C)c4)nc23)nc(N)n1)c1ccncc1F` (stereo not drawn) [A26, 1-{2-Amino-6-[2-(1-methyl-1H-pyrazol-4-yl)-5H-pyrrolo[2,3-b]pyrazin-7-yl]-pyrimidin-4-yl}-1-(3-fluoropyridin-4-yl)propan-1-ol], the figures for the half-maximal inhibitory concentration (IC50) (at PDK1; in assay [1] (setting [2])) were 44 nM and 580 nM, respectively.
On the same counts, the results for `COCOC(C)(c1cc(-c2c[nH]c3ncc(-c4cnn(C)c4)nc23)nc(N)n1)c1ccccc1F` (stereo not drawn) [A7, 4-[1-(2-Fluorophenyl)-1-methoxymethoxyethyl]-6-[2-(1-methyl-1H-pyrazol-4-yl)-5H-pyrrolo[2,3-b]pyrazin-7-yl]pyrimidin-2-ylamine] are 77 nM and 260 nM.
For `Cn1cc(-c2cnc3[nH]cc(-c4cc([C@](C)(O)c5ccccc5F)nc(N)n4)c3n2)cn1` (single isomer, unassigned) [A9], the half-inhibitory concentration (IC50) at PDK1 came out at 47 nM; in assay [1] (setting [2]), 150 nM.
On to `CC(C)n1cc(-c2cnc3[nH]cc(-c4cc(C(C)(O)c5ccccc5F)nc(N)n4)c3n2)cn1` (stereo not drawn) [A33, 1-{2-Amino-6-[2-(1-isopropyl-1H-pyrazol-4-yl)-5H-pyrrolo[2,3-b]pyrazin-7-yl]-pyrimidin-4-yl}-1-(2-fluorophenyl)ethanol], for which the IC50 against PDK1 was determined as 350 nM; in assay [1] (setting [2]), 250 nM.
